Read-outs that look alike come from different tables or passages of the source.

The nature of data set [1]: Pharmacokinetic study in rats after intragastric administration of Farfarae Flos extract (plasma, LC-MS/MS). Type of data set: in vivo. Particulars: for Cmax / Tmax / half-life / MRT last / MRT inf: male; for Cmax: rat, plasma, po; for MRT last: read-out: MRT(0–24h); for MRT inf: read-out: MRT(0–∞). The source says: A high-performance liquid chromatography instrument was used to separate three types of compounds (Agilent 1200 series, USA). The HPLC instrument is composed of four parts; a G1322A degasser, G1312A Bin Pump, G1367B auto-sampler, and G1316A thermostatic column compartment. Three types of compounds and three internal standards (ISs) were separated on an Eclipse Plus C18 (4.6 × 100 mm, 1.8 μm). The mobile phase was composed of formic acid aqueous solution (A) and formic acid methanol solution (B). The concentration of formic acid in both A and B solution was 0.1% (v/v). The gradient elution was as follows. The proportion of 10% B changes to 40% from 0 min to 3mins. 40% B changes to 90% from 16 to 18 min. B is maintained at 100% from 19 to 28 min. The flow rate, sample injected volume, and column temperature was 0.35 mL·min^−1, 10 μL, and 35°C, respectively.
Quantitative analysis of all samples was performed on Sciex API 3200 with an electrospray ionization (ESI) source. Analyst 1.6.2 workstation for instrument operation, data management, and data analysis were employed to analyze and process data (AB, Sciex). Ten analyzed compounds and three ISs were optimized during multiple reactions monitoring (MRM). […] MRM parameters of CCLA were set at 353.1-191.0. […] MRM parameters of IAB were set as 515.3-353.2 and MRM parameters of IAA were set at 515.2-353.0. MRM parameters of IAC and tussilagone were set as 515.3-352.9, 391.4-217.4, respectively.
Twenty male rats (4 months old, weight 240 ± 20 g) were obtained commercially from Vital River Laboratory Animal Company (Beijing, China). Before the pharmacokinetic experiments, they were free to eat food and drink water for one week for adapting to the environment when the dark light cycle was 12 hours, while the temperature was maintained at 25 ± 5°C. The animal experiments were guided and strictly approved by Tianjin Hospital animal ethics committee. They were fasted for 12 hours and could only drink freely water before intragastric administration of Farfarae Flos extract. Ten rats in each group were employed for eliminating data variation caused by different animal individuals. All rats in groups 1 and group 2 were orally administrated one time at two dosages of Farfarae Flos extract (carboxymethyl cellulose sodium salt (0.5%) was used to suspend the extract to prepare the administration solution 3.90 g·kg^−1 and 7.80 g·kg^−1), respectively. Rats were anesthetized with ether. The heparinized 1.5 mL polythene tube was used to collect bank plasma samples before administering dose of the extract. About 250 μL plasma samples were collected at each collecting points of 5 min, 10 min, 0.25 h, 0.50 h, 0.75 h, 1 h, 2 h, 4 h, 8 h, 12 h, 24 h, and 36 h via fossa orbitalis after dosing. All plasma samples from collecting points need to be centrifuged at 4,000 rpm for ten minutes. The supernatant fluid of centrifuged plasma samples was obtained and immediately stored at −20°C in a refrigerator until they were analyzed.
The maximum concentration (Cmax) and the time to reach the maximum concentration (Tmax) of ten target compounds were directly calculated by the real concentration-time data in the plasma. The data were expressed as mean ± SD.
Ten microliters of ISs solution (contained puerarin, ferulic acid, and artemisinin) and the plasma sample (100 μL) were added into a clean tube, and then acetonitrile (400 μL) was added to precipitate protein. After centrifugation at 14000 rpm for 10 minutes, a mild nitrogen flow was used to evaporate the liquid of the supernatant to dryness. Then, the residue was dissolved in methanol (100 μL). The solution was vortexed for 3 min, mixed for 3 minutes with ultrasound, and centrifuged for 10 min. Finally, the solution (10 μL) was used to detect concentration of ten target compounds in rat plasma.

Data set [2] can be described thus: Stability of QC samples in rat plasma (24 h, freeze-thaw, 4 weeks). The format is in vitro ADME. The following applies: six replicates; for 24 h stability Remain (%): 24 hours at 20°C; for Freeze-thaw stability, percent remaining: freeze-thaw cycles −20°C to 20°C; for Long stability Remain (%): stored at −80°C for 4 weeks. As for the experimental part: Stock solution of 10 analytical compounds (1.00 mg·mL^−1) and three internal standards (ISs) was dissolved in methanol and placed in the refrigerator before testing. Methanol was used to prepare ferulic acid (IS1), puerarin (IS2), and artemisinin (IS3) solutions to reach a concentration of 1 μg mL^−1, respectively. A specific volume of each analyte stock solution is mixed together to prepare the standard working solution containing 10 analytes with a concentration of 10 times at LLOQ and three levels (high, medium, and low). Quality control (QC) samples for methodological validation were prepared to obtain the final concentration by adding standard working solution (10 μL) into blank plasma samples (100 μL).
Four concentration levels of ICB and ICA were 4, 12, 400, and 12000 ng mL^−1, respectively. Four concentration levels of caffeic acid were 10, 30, 1000, and 30000 ng·mL^−1, respectively.
In the stability test, 24-hour stability (The samples were placed for 24 hours at 20°C and then measured), freeze-thaw cycles (The sample was injected after the temperature changing from −20°C to 20°C), and 4 weeks stability (The sample was determined after stored at −80°C for 4 weeks) of representative QC samples were all tested. All of them were assayed with six replicates.

The conditions of data set [3]: previous pharmacokinetic study on chlorogenic acid ref 15; cited from earlier work.
Where [4] appears, read: 3.9 g/kg, oral Farfarae Flos extract 3.9 g·kg^−1, mean ± SD.
[5] abbreviates: 7.8 g/kg, oral Farfarae Flos extract 7.8 g·kg^−1, mean ± SD.
Where [6] appears, read: rat plasma, oral Farfarae Flos extract 3.9 g·kg^−1, mean ± SD.
[7] abbreviates: rat plasma, oral Farfarae Flos extract 7.8 g·kg^−1, mean ± SD.
[8] abbreviates: high concentration level (3000-30000 ng·mL^−1).
Where [9] appears, read: low concentration level (3-30 ng·mL^−1).
[10] abbreviates: medium concentration level (100-1000 ng·mL^−1).

The term Cmax denotes the highest concentration seen after dosing. For orientation: Tmax means the time at which the peak concentration occurs. The half-life is how long it takes for the measured level to halve. A high value points to slow loss. `O=c1c(O[C@@H]2O[C@H](CO)[C@@H](O)[C@H](O)[C@H]2O)c(-c2ccc(O)c(O)c2)oc2cc(O)cc(O)c12` [Isoquercitrin, isoquercitrin] yielded a maximum concentration (Cmax) in data set [1] (setting [4]) of 5.81 ± 5.72 ng/mL. This compound came in with a Cmax in data set [1] (setting [5]) of 10.2 ± 6.83 ng/mL. Further, in data set [1] (setting [6]), the Tmax is 0.44 ± 0.26 h, the half-life is 0.88 ± 1.01 h, the MRT last stood at 3.16 ± 3.46 h and the MRT inf is 7.56 ± 6.22 h. Besides, in data set [1] (setting [6]), the “AUC(0–24h)” value stood at 7.284 ± 5.643 ng/mL ∗ h. Further, in data set [1] (setting [7]), the Tmax amounted to 0.27 ± 0.1 h, the half-life was 1.19 ± 1.65 h, the MRT last came out at 2.81 ± 1.79 h and the MRT inf was 9.94 ± 10.4 h. In data set [1] (setting [7]), the “AUC(0–24h)” value is 16.15 ± 12.24 ng/mL ∗ h and the “AUC(0–∞)” value came out at 25.18 ± 13.92 ng/mL ∗ h. In addition, in data set [2] (setting [8]), the “24 h stability Remain (%)” value is given as 113%; the “Freeze-thaw stability, percent remaining” value is recorded as 110%; the “Long stability Remain (%)” value amounted to 92.3%. In data set [2] (setting [9]), the “24 h stability Remain (%)” value is reported as 84.4%; the “Freeze-thaw stability, percent remaining” value worked out at 104%; the “Long stability Remain (%)” value is given as 92.0%. In data set [2] (setting [10]), the “24 h stability Remain (%)” value is reported as 113%; the “Freeze-thaw stability, percent remaining” value is reported as 111%; the “Long stability Remain (%)” value was found to be 105%.

For the compound `C[C@@H]1O[C@@H](OC[C@H]2O[C@@H](Oc3c(-c4ccc(O)c(O)c4)oc4cc(O)cc(O)c4c3=O)[C@H](O)[C@@H](O)[C@@H]2O)[C@H](O)[C@H](O)[C@H]1O` [Rutin, rutin], the highest level in data set [1] (setting [4]) (Cmax) was 17.9 ± 17.6 ng/mL. In data set [1] (setting [5]), this compound gave a Cmax of 76.7 ± 55.5 ng/mL. Moreover, in data set [1] (setting [6]), the half-life is 0.61 ± 0.46 h, the MRT last was determined as 1.95 ± 1.06 h, the MRT inf is 3.06 ± 1.3 h and the “AUC(0–24h)” value is 39.49 ± 59.42 ng/mL ∗ h. In data set [1] (setting [6]), the “AUC(0–∞)” value is on record as 42.77 ± 60.06 ng/mL ∗ h and the T max came out at 0.39 ± 0.16 h. In data set [1] (setting [7]), the Tmax was determined as 0.32 ± 0.12 h, the MRT last worked out at 2.79 ± 0.24 h, the MRT inf was determined as 6.02 ± 4.7 h and the “AUC(0–24h)” value is 104.04 ± 53.04 ng/mL ∗ h. Besides, in data set [1] (setting [7]), the “t 1/2” value is given as 0.82 ± 0.51 h. In data set [2] (setting [8]), the “Freeze-thaw stability, percent remaining” value was determined as 116% and the “Long stability Remain (%)” value was determined as 89.6%. Moreover, the “Long stability Remain (%)” value in data set [2] (setting [9]) is recorded as 97.0%.

For the compound `O=C(O)/C=C/c1ccc(O)c(O)c1` [Caffeic acid, caffeic acid], the highest concentration (Cmax) in data set [1] (setting [4]) worked out at 96.3 ± 36.6 ng/mL. In addition, the peak concentration (Cmax) in data set [1] (setting [5]) worked out at 106 ± 24.4 ng/mL. In data set [1] (setting [6]), the Tmax was 0.23 ± 0.04 h, the half-life is 4.65 ± 4.89 h, the MRT last amounted to 6.47 ± 3.05 h and the MRT inf was found to be 14.8 ± 8.46 h. Also, in data set [1] (setting [6]), the “AUC(0–24h)” value is recorded as 338.9 ± 246.4 ng/mL ∗ h and the “AUC(0–∞)” value turned out to be 691.7 ± 477.5 ng/mL ∗ h. Besides, in data set [1] (setting [7]), the Tmax came out at 0.21 ± 0.04 h, the half-life is 2.75 ± 2.71 h, the MRT last came out at 4.81 ± 3.64 h and the MRT inf is 15.6 ± 10.5 h. Besides, in data set [1] (setting [7]), the “AUC(0–24h)” value is on record as 473.5 ± 273.8 ng/mL ∗ h and the “AUC(0–∞)” value is reported as 723.9 ± 468.5 ng/mL ∗ h. For the same compound, in data set [2] (setting [8]), the “24 h stability Remain (%)” value is reported as 90.7%; the “Freeze-thaw stability, percent remaining” value is given as 85.5%; the “Long stability Remain (%)” value was 81.1%. Further, in data set [2] (setting [9]), the “24 h stability Remain (%)” value is recorded as 81.1%; the “Freeze-thaw stability, percent remaining” value is given as 101%; the “Long stability Remain (%)” value is reported as 113%. Moreover, in data set [2] (setting [10]), the “24 h stability Remain (%)” value is 113%; the “Freeze-thaw stability, percent remaining” value is listed as 87.2%; the “Long stability Remain (%)” value worked out at 109%.

The term MRT denotes the average time that molecules of a dose stay in the body. Consider `O=C(/C=C/c1ccc(O)c(O)c1)O[C@@H]1C[C@](O)(C(=O)O)C[C@@H](O)[C@H]1O` [CLA, chlorogenic acid], for which, in data set [3], the mean residence time MRT is reported as 5.08 ± 0.89 h and the Tmax is given as 0.70 ± 0.19 h. The compound also returned a maximum concentration (Cmax) in data set [1] (setting [4]) of 538 ± 489 ng/mL. Besides, in data set [1] (setting [6]), the Tmax came out at 0.64 ± 0.244 h, the half-life is 2.16 ± 1.46 h, the MRT last was determined as 4.4 ± 1.71 h and the MRT inf was 5.41 ± 2.04 h. Further, in data set [1] (setting [6]), the “AUC(0–24h)” value was determined as 1425 ± 1046 ng/mL ∗ h and the “AUC(0–∞)” value amounted to 1467 ± 1044 ng/mL ∗ h. Further, in data set [1] (setting [7]), the time to peak (Tmax) stood at 0.38 ± 0.14 h, the half-life is 1.28 ± 0.56 h, the MRT last is 4.63 ± 1.36 h and the MRT inf worked out at 5.32 ± 1.55 h. In data set [1] (setting [7]), the “AUC(0–24h)” value stood at 3611 ± 1023 ng/mL ∗ h and the “AUC(0–∞)” value stood at 3692 ± 1052 ng/mL ∗ h. Besides, in data set [2] (setting [8]), the “Freeze-thaw stability, percent remaining” value came to 115% and the “Long stability Remain (%)” value is 112%. Further, the “Long stability Remain (%)” value in data set [2] (setting [9]) was determined as 114%. The “Freeze-thaw stability, percent remaining” value in data set [2] (setting [10]) came to 88.7%.

These data come from paper PMC8970883, “Simultaneous Determination of Seven Phenolic Acids, Two Flavonoids, and Tussilagone in Rat Plasma after Administration of Farfarae Flos Extract by LC–MS/MS” (Evidence-based Complementary and Alternative Medicine : eCAM, 2022).
